Assay results reported in US9518078B2, “Disaccharide synthetic lipid compounds and uses thereof” (AVANTI POLAR LIPIDS, INC., priority 2012, dated 2016).
Values joined by “and” are separate entries in the source; they are usually repeats but may differ in a detail not shown here. Equal values may be shown once.

Assays:
human TLR-4 receptor = biological target: T1, human TLR-4 receptor (Homo sapiens, UniProt O00206+Q9Y6Y9); test: NFκB-inducible secreted alkaline phosphatase reporter in HEK-293 cells over-expressing human TLR-4; type: cell-based; conditions: hTLR-4 HEK-293, 18 h
T1 construct: expressed in transfected cells; host or cells: HEK-293
Experimental: (§1) HEK-293 cell lines engineered to functionally over-express human or murine TLR-4 receptor were utilized in the experiments below. These cells also contain a reporter gene (a secreted alkaline phosphatase) under the control of a NFκB inducible promoter. TLR-4 activation results are given as optical density (OD) values after 18 hours stimulation of the designated HEK-293 cell lines.
(§2) Samples and controls are tested in duplicate on recombinant HEK-293 cell lines. The negative controls for the assay were the parental HEK-293 cell lines transfected only with the reporter gene. Negative control cells were stimulated with TNF-α, an inducer of NFκB activity. The positive controls for the assay were HEK-293 cells transfected with human TLR-4 (hTLR-4) or mouse TLR-4 (mTLR-4) along with the reporter construct and activated with LPS 0111 (obtained from E. coli 0111:B4 strain) from 100 ng/ml to 0.01 ng/ml or with LPS K12 (obtained from E. coli K12 strain) from 100 ng/ml to 0.01 ng/ml.
(§3) Another synthetic disaccharide lipid compound used in this assay in an independent experiment, was the compound of the structure XV (referred to herein as MPLA-C). […] Test compounds were used at the following concentrations: 5.7 μM/570 nM/171 nM/57 nM/17 nM/5.7 nM/well to stimulate in duplicate hTLR4 and mTLR4 expressing cell lines.

[1] = system: murine parental cell line (mTLR); test: Negative control: murine parental HEK-293 cell line transfected only with the reporter gene; type: cell-based, mouse; conditions: parental HEK-293, 18 h
Experimental: as §1, §2
Another synthetic disaccharide lipid compound used in this assay in an independent experiment was the compound of the structure X (referred to herein as MPLA-D). […] Test compounds were used at the following concentrations: 5.71 μM/570 nM/171 nM/57 nM/17 nM/5.7 nM/well to stimulate in duplicate mTLR4 expressing cell lines.
as §3

T1 sequence (O00206 24-839): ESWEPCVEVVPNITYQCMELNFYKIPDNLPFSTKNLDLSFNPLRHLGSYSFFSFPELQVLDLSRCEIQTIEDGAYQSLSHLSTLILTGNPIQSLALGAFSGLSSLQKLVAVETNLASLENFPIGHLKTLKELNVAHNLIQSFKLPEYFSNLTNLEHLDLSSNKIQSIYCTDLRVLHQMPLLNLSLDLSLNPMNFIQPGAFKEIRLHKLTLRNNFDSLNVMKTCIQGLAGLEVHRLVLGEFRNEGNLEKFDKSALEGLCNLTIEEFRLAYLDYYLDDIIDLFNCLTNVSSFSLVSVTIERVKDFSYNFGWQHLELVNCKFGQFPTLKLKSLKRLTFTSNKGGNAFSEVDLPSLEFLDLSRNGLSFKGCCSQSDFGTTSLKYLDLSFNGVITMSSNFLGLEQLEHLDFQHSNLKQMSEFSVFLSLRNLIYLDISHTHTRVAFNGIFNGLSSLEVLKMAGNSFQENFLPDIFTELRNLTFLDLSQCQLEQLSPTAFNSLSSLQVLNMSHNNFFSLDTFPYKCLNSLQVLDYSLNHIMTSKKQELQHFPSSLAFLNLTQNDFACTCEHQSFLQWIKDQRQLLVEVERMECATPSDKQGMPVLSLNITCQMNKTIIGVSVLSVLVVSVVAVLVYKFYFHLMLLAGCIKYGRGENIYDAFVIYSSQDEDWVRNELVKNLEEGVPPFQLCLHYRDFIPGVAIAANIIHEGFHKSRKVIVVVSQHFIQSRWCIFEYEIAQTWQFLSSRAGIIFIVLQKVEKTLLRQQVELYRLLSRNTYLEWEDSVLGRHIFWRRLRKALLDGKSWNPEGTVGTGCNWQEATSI
T1 sequence (Q9Y6Y9 17-160 limits assumed): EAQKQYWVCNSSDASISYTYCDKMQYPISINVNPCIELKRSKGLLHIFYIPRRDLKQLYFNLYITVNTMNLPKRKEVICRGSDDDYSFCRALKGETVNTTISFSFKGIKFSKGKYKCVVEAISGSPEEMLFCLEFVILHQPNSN

For TNF-α, the “TLR-4 activation, optical density (OD)” value (human TLR-4 receptor; 0.1 ng/ml) was 0.275 OD, the “TLR-4 activation, optical density (OD)” value (human TLR-4 receptor; 0.3 ng/ml) was 0.577 OD and the “TLR-4 activation, optical density (OD)” value (human TLR-4 receptor; 1 ng/ml) was 0.899 OD. The “TLR-4 activation, optical density (OD)” value (human TLR-4 receptor; 3 ng/ml) was 1.135 OD, the “TLR-4 activation, optical density (OD)” value (human TLR-4 receptor; 10 ng/ml) was 1.262 OD and the “TLR-4 activation, optical density (OD)” value (human TLR-4 receptor; 30 ng/ml) was 1.387 OD. For the same substance, the “NFκB reporter, optical density (OD), negative control cells” value (“NFκB reporter, optical density (OD)” for short) ([1]; 0.3 ng/ml) was 0.035 OD and 0.025 OD and 0.027 OD, the “NFκB reporter, optical density (OD)” value ([1]; 3 ng/ml) was 0.033 OD and 0.027 OD and 0.024 OD and the “NFκB reporter, optical density (OD)” value ([1]; 30 ng/ml) was 3.586 OD and 3.502 OD and 3.663 OD.
